What was measured:
Assay type in all cases: biochemical
[1] = target: T1, recombinant human PKG1-beta (Homo sapiens, UniProt Q13976); test: Determination of Protein Kinase G inhibition (selectivity); settings: from IC50 values
T1 construct: PKG1-beta (full-length, with N-terminal His-tag); His-tag (N); purchased Millipore GmbH, Schwalbach, Germany
T1 sequence (Q13976 1-686 isoform Q13976-2): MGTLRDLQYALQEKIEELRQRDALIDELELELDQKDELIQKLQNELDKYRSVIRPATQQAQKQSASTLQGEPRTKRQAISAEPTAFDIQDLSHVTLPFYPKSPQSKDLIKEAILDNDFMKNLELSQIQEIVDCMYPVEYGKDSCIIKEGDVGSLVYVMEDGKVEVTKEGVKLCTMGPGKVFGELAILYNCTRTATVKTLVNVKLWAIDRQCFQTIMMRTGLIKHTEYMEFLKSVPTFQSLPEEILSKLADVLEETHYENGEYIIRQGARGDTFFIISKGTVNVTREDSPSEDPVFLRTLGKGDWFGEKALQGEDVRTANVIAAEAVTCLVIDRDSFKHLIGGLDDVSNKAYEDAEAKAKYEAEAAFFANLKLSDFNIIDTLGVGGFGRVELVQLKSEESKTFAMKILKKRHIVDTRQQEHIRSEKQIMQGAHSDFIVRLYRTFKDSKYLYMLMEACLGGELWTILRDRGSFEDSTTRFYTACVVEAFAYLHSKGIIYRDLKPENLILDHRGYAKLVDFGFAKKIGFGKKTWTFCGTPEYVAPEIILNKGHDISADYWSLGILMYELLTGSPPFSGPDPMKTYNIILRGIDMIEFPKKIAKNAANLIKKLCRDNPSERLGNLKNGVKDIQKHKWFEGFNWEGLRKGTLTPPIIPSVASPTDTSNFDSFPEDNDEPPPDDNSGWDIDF
Procedure: (§1) 2) Determination of Protein Kinase a and Protein Kinase G Inhibition
(§2) To measure PKA and PKG1-beta inhibition, IC50 values were determined according to the following protocol:
(§3) Active recombinant human PKG1-beta (full-length, with N-terminal His-tag) was purchased from Millipore GmbH, Schwalbach, Germany. Active recombinant human PKA (residues 1-351, N-terminal His-tag) was obtained from Invitrogen, Karlsruhe, Germany. The peptide substrate, Fluorescein-[…]-COOH, was obtained from JPT Peptide Technologies, Berlin, Germany. Adenosine-5′-triphosphate (ATP), bovine serum albumine (BSA), dimethylsulphoxide (DMSO), 4-(2-Hydroxyethyl)piperazine-1-ethanesulfonic acid (Hepes), Brij-35, dithiothreitol (DTT) and Pluronic F-68 were purchased from Sigma-Aldrich, Munich, Germany. Tris(hydroxymethyl)-aminomethane (Tris), magnesium chloride, NaOH, 1M HCl and EDTA were obtained from Merck Biosciences, Darmstadt, Germany. “Complete” protease inhibitor was from Roche Diagnostics, Mannheim, Germany. Test compounds were diluted to the appropriate concentrations in buffer 1 (25 mM Tris-HCl, pH 7.4, 5 mM MgCl2, 2 mM DTT, 0.02% (w/v) BSA, 0.01% Pluronic F-68 and 3% DMSO). PKG1-beta and PKA were diluted to concentrations of 150 ng/ml and 30 ng/ml, respectively, in buffer 2. The peptide substrate and ATP were diluted to concentrations of 3 μM and 120 μM, respectively, in the buffer 2. Two μl of the compound solution were mixed with 2 μl of the diluted enzyme in a 384-well small volume microtiter plate (Greiner, Bio-One, Frickenhausen, Germany), and the kinase reaction was initiated by addition of 2 μl of the solution containing peptide substrate and ATP. After 60 min incubation at 32° C., the reaction was stopped by addition of 20 μl of a solution containing 100 mM Hepes-NaOH, pH 7.4, 0.015% (v/v) Brij-35, 45 mM EDTA and 0.227% chip coating reagent 1 (Caliper Lifescience Inc, Hopkinton, Mass.). Phosphorylation of the substrate peptide was then detected on a Caliper 3000 instrument essentially as described by Pommereau et al (J. Biomol. Screening 9(5), 409-416, 2004). Separation conditions were as follows: Pressure −1.3 psi, upstream voltage −1562 V, downstream voltage −500 V, sample sip time 200 ms, Positive controls (buffer 1 instead of compound) and negative controls (buffer 1 instead of compound and buffer 2 instead of kinase solution) were run in parallel on each plate. The following products/compounds were tested in said assay by using the respective form (salt or free base) obtained as in the examples described above and the following activities were measured.

[2] = target: T2, human recombinant ROCK II (Homo sapiens, UniProt O75116); test: Determination of Rho kinase inhibition (ROCK II, Caliper peptide phosphorylation assay); settings: respective form (salt or free base) as obtained in the examples, 60 min at 32° C.
T2 construct: recombinant human ROCK-II residues 11-552; His6 (N); purchased Millipore GmbH, Schwalbach, Germany
T2 sequence (O75116 11-552): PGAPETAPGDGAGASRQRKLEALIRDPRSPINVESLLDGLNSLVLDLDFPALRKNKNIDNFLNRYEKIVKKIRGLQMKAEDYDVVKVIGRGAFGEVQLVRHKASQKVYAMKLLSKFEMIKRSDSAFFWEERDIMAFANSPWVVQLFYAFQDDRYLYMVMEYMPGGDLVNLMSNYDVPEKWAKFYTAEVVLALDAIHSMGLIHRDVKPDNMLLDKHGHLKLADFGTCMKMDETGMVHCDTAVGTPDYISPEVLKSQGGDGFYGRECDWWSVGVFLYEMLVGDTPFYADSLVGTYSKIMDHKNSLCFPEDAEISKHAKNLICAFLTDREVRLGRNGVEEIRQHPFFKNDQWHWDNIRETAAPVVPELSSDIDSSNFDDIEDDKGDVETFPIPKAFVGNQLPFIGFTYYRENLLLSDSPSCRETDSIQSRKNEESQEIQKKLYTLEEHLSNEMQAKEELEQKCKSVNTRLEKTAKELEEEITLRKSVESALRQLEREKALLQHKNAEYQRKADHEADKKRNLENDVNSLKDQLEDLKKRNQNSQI
Summary of the method: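 Enzyme: active N-terminal His6-tagged recombinant human ROCK-II, residues 11-552. Substrate: a fluorescein-labelled peptide, with ATP. IC50 values were determined.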

[3] = target: T3, recombinant human PKA (Homo sapiens, UniProt P17612); test: Determination of Protein Kinase A inhibition (selectivity); settings: from IC50 values
T3 construct: recombinant human PKA (residues 1-351, N-terminal His-tag); His-tag (N); purchased Invitrogen, Karlsruhe, Germany
Procedure: as §1, §2, §3

Row | Selectivity against PKG [1] [fold] | IC50 [2] [nM] | Selectivity against PKA [3] [fold] | pIC50 [2] | SMILES
1 | >1000 | ≤ 10 | >1000 |  | CCC(N)[C@]1(C2CC2)CC[C@H](Oc2cc3cc[nH]c(=O)c3cc2Cl)CC1 (stereo partly drawn) [Example 74, cis-6-[4-(1-Amino-propyl)-4-cyclopropyl-cyclohexyloxy]-7-chloro-2H-isoquinolin-1-one]
2 | >300 | ≤ 10 | >1000 |  | C[C@]1(C(N)C2CC2)CC[C@@H](Oc2cc3cc[nH]c(=O)c3cc2Cl)CC1 (stereo partly drawn) [Example 69, cis-6-[4-(Amino-cyclopropyl-methyl)-4-methyl-cyclohexyloxy]-7-chloro-2H-isoquinolin-1-one]
3 | >10 |  | >1000 | +++++++ (8.0 ≦ pIC50) | CCC(N)C1(CC)CCC(Oc2cc3cc[nH]c(=O)c3cc2Cl)CC1 (single isomer, unassigned) [Example 108]
4 | >300 | ≤ 10 | >1000 |  | NC(C1CC1)[C@]1(CCCC(F)(F)F)CC[C@H](Oc2cc3cc[nH]c(=O)c3cc2Cl)CC1 (stereo partly drawn) [Example 73, cis-6-[4-(Amino-cyclopropyl-methyl)-4-(4,4,4-trifluoro-butyl)-cyclohexyloxy]-7-chloro-2H-isoquinolin-1-one]
5 | >300 | ≤ 10 | >1000 |  | CC(N)C1(CC2CC2)CCC(Oc2cc3cc[nH]c(=O)c3cc2Cl)CC1 (single isomer, unassigned) [Example 10, 6-[4-(1-Amino-ethyl)-4-cyclopropylmethyl-cyclohexyloxy]-7-chloro-2H-isoquinolin-1-one]
6 | >1000 | ≤ 10 | >1000 |  | NC(C1CC1)[C@]1(C2CC2)CC[C@H](Oc2cc3cc[nH]c(=O)c3cc2Cl)CC1 (stereo partly drawn) [Example 75, cis-6-[4-(Amino-cyclopropyl-methyl)-4-cyclopropyl-cyclohexyloxy]-7-chloro-2H-isoquinolin-1-one]
7 | >100 | ≤ 10 | >100 |  | CCC(N)C1(C(C)C)CCC(Oc2cc3cc[nH]c(=O)c3cc2Cl)CC1 (single isomer, unassigned) [Example 8, 6-[4-(1-Amino-propyl)-4-isopropyl-cyclohexyloxy]-7-chloro-2H-isoquinolin-1-one]
8 | >100 | 10 to 100 | >300 |  | CC[C@]1(C(N)CF)CC[C@H](Oc2cc3cc[nH]c(=O)c3cc2Cl)CC1 (stereo partly drawn) [Example 96, trans-6-[4-(1-Amino-2-fluoro-ethyl)-4-ethyl-cyclohexyloxy]-7-chloro-2H-isoquinolin-1-one]
9 | >300 | 10 to 100 | >300 |  | CC(C)C1(C(N)c2cncs2)CCC(Oc2cc3cc[nH]c(=O)c3cc2Cl)CC1 (single isomer, unassigned) [Example 47, 6-[4-(Amino-thiazol-5-yl-methyl)-4-isopropyl-cyclohexyl-oxy]-7-chloro-2H-isoquinolin-1-one]
10 | >100 | 10 to 100 | >100 |  | CCC(N)[C@]1(OC)CC[C@@H](Oc2cc3cc[nH]c(=O)c3cc2Cl)CC1 (stereo partly drawn) [Example 59, trans-6-[4-(1-Amino-propyl)-4-methoxy-cyclohexyloxy]-7-chloro-2H-isoquinolin-1-one]

Row | SMILES | Selectivity against PKG [1] [fold] | IC50 [2] [nM] | Selectivity against PKA [3] [fold] | pIC50 [2]
11 | NC(c1ccccc1)C1(C2CCCC2)CCC(Oc2cc3cc[nH]c(=O)c3cc2Cl)CC1 (single isomer, unassigned) [Example 25, 6-[4-(Amino-phenyl-methyl)-4-cyclopentyl-cyclohexyloxy]-7-chloro-2H-isoquinolin-1-one] | >100 | 10 to 100 | >300 | 

— patent publication US8399482B2, “6-substituted isoquinolines and isoquinolinones” (Sanofi, priority 2008, dated 2013)
